Test [1] concerns extracellular dopamine in the nucleus accumbens. Briefly: In vivo microdialysis of extracellular dopamine in nucleus accumbens. Set-up: species or system rat. On the procedure:
FIG. 3. In vivo microdialysis of extracellular dopamine in the nucleus accumbens at concentrations of 1, 10, and 100 μM of RTI-4793-14. All values are mean ±SEM (n=4). Group comparisons are made with one-way ANOVA and the Dunnetts t-test *p<0.05 and **p<0.01.
FIG. 4. Effects of systemic RTI-4793-14 (5 mg/kg, i.v.) on extracellular dopamine in the nucleus accumbens. All values are mean ± SEM (n=3). Group comparisons are made with one-way ANOVA and the Dunnetts t-test *p<0.05 and **p<0.01. FIG. 5. Schematic diagram for the synthesis of RTI-4793-41 and RTI-4793-48 compounds and analogs thereof.
Male Sprague Dawley rats (350-450 g) were anesthetized with chloral hydrate (400 mg/kg; 100 mg/ml) and supplemented as required (90 mg/kg) to abolish the corneal reflex. Animals were then placed in a stereotaxic frame and dialysis probes (CMA 12, 2 mm) were implanted into the nucleus accumbens (AP:+2mm, LAT:+l.5mm, H:-7.5mm relative to bregma) according to the atlas of Paxinos and Watson (Paxinos, G. "The rat brain in stereotaxic coordinates." (New York: Academic Press, 1982)). The dialysis probes were perfused with a physiological medium containing 145 mM NaCl, 4 mM KCl, 1.3 mM CaCl2, and 2 mM Na2 HPO41 the final pH of the medium being pH 7.4. The probes were dialyzed at a flow rate of […]. and samples were collected every 15 min.
The dialysis probes were allowed to equilibrate for 1-2 hours prior to collection of the baseline samples. […] RTI-4793-14 (1-100 μM) was then administered focally via the dialysis probe for a 15 min. sampling period at the end of which normal dialysis medium was dialyzed through the probe. Sampling continued for a further 3 samples before application of the subsequent concentration of RTI-4793-14. In a subsequent group of animals RTI-4793-14 was administered systemically (5mg/kg; 5mg/ml) via a femoral vein catheter.
The samples were analyzed for DA using HPLC with electrochemical detection. The mobile phase (75 mM NaH2 PO4, 1.5 mM sodium dodecyl sulphate, 20 mM EDTA, 15% acetonitrile and 12% methanol, pH 5.6) was filtered and degassed before pumping at a rate of 0.75 ml/min. through a HR-80 column (3m BDS, 80×4.6 mm). Electrochemical detection-was performed using a Coulochem II with Guard cell:+350 mV, Det 1: -75 mV, and Det 2: +22 mV.
In vivo microdialysis data were analyzed by using a one-way ANOVA and post-hoc Dunnetts t-test. In the focal RTI experiments in which 3 drug concentrations were administered, the baseline value for dopamine was defined as the sample preceding the application of each drug concentration. Analysis of any drug effect was therefore made comparing the baseline value prior to the drug administration.

The test system of test [2] is eleven neurotransmitter, four regulatory site, four ion channel, and three second-messenger assays. In words: NovaScreen/NIMH Psychoactive Drug Discovery Program panel. Particulars: 10^-5 M. On the procedure:
Compound 3b also was tested in the NovaScreen/NIMH Psychoactive Drug Discovery Program which included eleven neurotransmitter, four regulatory site, four ion channel, and three second-messenger assays.

“Also recorded” adds a separate entry of the source.

`CN1[C@H](Cc2ccccc2)C[C@H]2Cc3ccccc3[C@H]21` (relative stereo) [RTI-4793-14, (2RS, 3aSR, 8aRS)-1,2,3a,8,8a-Hexahydro-2-benzyl-1-methyl-indeno[1,2-b]pyrrole]: the “increase in extracellular DA” value is “about 2 fold” in test [1] (focal application via the microdialysis probe, 1 μM); approximately 8 fold in test [1] (focal application via the microdialysis probe, 10 μM); “about 2 fold” in test [1] (intravenous, 5 mg/kg). The “effect on extracellular dopamine in words” value in test [1] (local or systemic administration in rats) is “increased extracellular DA; also recorded: increase the levels of dopamine in the brain”. The “inhibition in NovaScreen panel” value in test [2] is recorded as “No significant inhibition”.

For the origin of these results see patent publication US5747503A, “Selective inhibitors of biogenic amine transporters” (priority 1996, dated 1998).
